The values that follow come from patent US5763474A, “Substituted N-arylmethylamino derivatives of cyclobutene-3,4-diones” (American Home Products Corporation, priority 1997, dated 1998).

Structures are written as SMILES. Like-named read-outs stand apart in the source and are kept apart here.

As a reminder, the IC50 is the concentration that inhibits the measured activity by half. What is called inhibition is the share of the control response that was lost under treatment.

The subject of assay [1] is Isolated Rat Bladder Strips. As to the kind of experiment: Inhibition of Contractions in Isolated Rat Bladder Strips (15 mM KCl-enhanced contractile activity). Also noted: species or system Sprague-Dawley rats. As to conditions: for inhibition at 30 µM: read-out: Percent inhibition at 30 μM (I); for activity at 30 µM: read-out: Percent contraction at 30 μM (C). The text has this: The smooth muscle relaxing activity of the compounds of this invention was established in accordance with standard pharmaceutically accepted test procedures with representative compounds as follows:
Sprague-Dawley rats (150-200 g) are rendered unconscious by CO2 asphyxiation and then euthanized by cervical dislocation. The bladder is removed into warm (37 deg.C.) physiological salt solution (PSS) of the following composition (mM): NaCl, 118.4; KCl, 4.7; CaCl2, 2.5; […]; NaHCO3, 24.9; KH2 PO4, 1.2; glucose, 11.1; EDTA, 0.023; gassed with […]; pH 7.4. The bladder is opened and then cut into strips 1-2 mm in width and 7-10 mm in length. The strips are subsequently suspended in a 10 mL tissue bath under an initial resting tension of 1.5 g. The strips are held in place by two surgical clips one of which is attached to a fixed hook while the other is attached to an isometric force transducer. […] The carbachol is then washed out and the tissue allowed to relax to its resting level of activity. Following a further 30 minute period of recovery an additional 15 mM KCl are introduced into the tissue bath. This increase in KCl concentration results in a large increase in the amplitude of spontaneous contractions (and initiation of contractions in previously quiescent strips) superimposed upon a small increase in basal tone. Following stabilization of this enhanced level of contractile activity, incremental increases in the concentration of test compound or vehicle are introduced into the tissue bath. Contractile activity is measured for each compound or vehicle concentration during the last minute of a 30 minute challenge.
The isometric force developed by the bladder strips is measured using a […]. The (IC50 concentration) is calculated from this concentration-response curve.

The subject of assay [2] is hypertrophied bladder (detrussor) smooth muscle in conscious female rats. As to the kind of experiment: Inhibition of Spontaneous Contractions In Vivo in the hypertrophied rat bladder model (cystometry, conscious rats). Also noted: species or system Female Sprague-Dawley rats. The procedure: In addition, we tested the ability of compounds to inhibit the hyperactivity of hypertrophied bladder (detrussor) smooth muscle in conscious female rats with hypertrophied bladders and thereby alleviate urinary incontinence in rats according to the following protocol described by Malmgren et al., J. Urol. 142:1134, 1989:
Female Sprague-Dawley rats, ranging in weight from 190-210 g are used. Up to 25 animals are prepared each time. After developemnt of bladder hypertrophy 4-8 animals are used per test.
Compounds are dissolved in PEG-200 and administered by gastric gavage or intraveneously in a volume of 5 ml/kg. For primary screening all drugs are administered at the arbitrary dose of 10 mg/kg p.o. to groups of 4 rats.
The animals are anesthetized with halothane. Through a midline incision the bladder and urethra are exposed and a ligature of 4-0 silk is tied around the proximal urethra in the presence of a stainless steel rod (1 mm diameter) to produce a partial occlusion. The rod is then removed. The abdominal region is closed using surgical staples and each rat receives 150,000 units of bicillin C-R. The animals are allowed six weeks to develop sufficient bladder hypertrophy. After six weeks, the ligature is removed under halothane anesthesia and a catheter (PE 60) with a cuff is placed in the dome of the bladder and secured with a purse string suture. The catheter is tunneled under the skin and exteriorized through an opening in the back of the neck. The abdominal incision is sutured and the free end of the catheter sealed. In order to prevent infections the rats receive an injection of bicillin C-R (150000 units/rat). Two days later the animals are used in cystometrical evaluations, The animals are placed in the metabolic cages and the catheter is attached (using a "T" connector) to a Statham pressure transducer (Model P23Db) and to a Harvard infusion pump. A plastic beaker attached to a force displacement transducer (Grass FTO3) is placed under the rat's cage to collect and record urine volume. Animals are allowed 15-30 minutes to rest before the saline infusion (20 ml/hr for 20 minutes) is started for the first cystometry period. Two hours after the first cystometry period, the rats are dosed with the vehicle or the test compound and one hour later a second cystometry is performed.
The following urodynamic variables are recorded:
The mean value of each variable is calculated before and after compound administration. For each compound the changes in the variables measured are compared to the values obtained before treatment and expressed as percent inhibition. The data are also subjected to 2-way analysis of variance to determine significant (p<0.05) changes in the variable measured. The most characteristic finding in this rat model is spontaneous bladder contractions which develop during filling.

Where [3] appears, read: 0.5 h, isolated rat bladder strips, 15 mM KCl, 30 minute challenge, read-out: IC50, inhibition of contractions in isolated rat bladder strips.
[4] abbreviates: 0.5 h, isolated rat bladder strips.

For the compound `CCC(C)(C)Nc1c(N(Cc2ccc(Cl)cc2Cl)C(C)=O)c(=O)c1=O` [Example 7, N-(2,4-dichloro-benzyl)-N-[2-(1,1-dimethyl-propylamino)-3,4-dioxo-cyclobut-1-enyl]-acetamide], the IC50 in assay [1] (setting [3]) came out at 15800 ± 50 nM.

With `CCC(CC)Nc1c(NCc2ccc(Cl)c(Cl)c2)c(=O)c1=O` [Example 14, 3-(3,4-Dichloro-benzylamino)-4-(1-ethyl-propylamino)-cyclobut-3-ene-1,2-dione], the inhibition at 30 µM in assay [1] (isolated rat bladder strips) worked out at 22 ± 5.9%.

On to `CCC(CC)Nc1c(NCc2ccc(Cl)cc2Cl)c(=O)c1=O` [Example 15, 3-(2,4-dichloro-benzylamino)-4-(1-ethyl-propylamino)-cyclobut-3-ene-1,2-dione], for which the IC50 in assay [1] (setting [3]) came out at 2000 ± 800 nM.

For `CC(C)(C)Nc1c(NCc2ccc(Cl)c(Cl)c2)c(=O)c1=O` [Example 24, 3-tert-Butylamino-4-(3,4-dichlorobenzylamino)-cyclobut-3-ene-1,2-dione], the activity at 30 µM in assay [1] (setting [4]) amounted to 30%. Moreover, the IC50 in assay [1] (setting [3]) was 1480 ± 570 nM. The inhibition at 30 µM in assay [1] (isolated rat bladder strips) stood at 32.5 ± 3.1%.

Regarding `CCC(C)(C)Nc1c(N(Cc2c(C)cc(Cl)cc2Cl)C(C)=O)c(=O)c1=O` [Example 18, N-(2,4-Dichloro-6-methyl-benzyl)-N-[2-(1,1-dimethyl-propylamino)-3,4-dioxo-cyclobut-1-enyl]-acetamide], the inhibition at 30 µM in assay [1] (isolated rat bladder strips) came to 26 ± 13.8%.

Regarding `C[C@@H](Nc1c(NCc2ccc(Cl)cc2Cl)c(=O)c1=O)C(C)(C)C` [Example 23, (R)-3-(2,4-dichlorobenzylamino)-4-(1,2,2-trimethylpropylamino)-cyclobut-3-ene-1,2-dione], the IC50 in assay [1] (setting [3]) was determined as 340 ± 220 nM.

Turning to `CCC(C)(C)Nc1c(NCc2c(C)cc(Cl)cc2Cl)c(=O)c1=O` [Example 9, 3-(2,4-Dichloro-6-methyl-benzylamino)-4-(1,1-dimethyl-propylamino)-cyclobut-3-ene-1 2-dione], in assay [1] (setting [3]), the IC50 came to 200 ± 60 nM. The “% Red (F): percent reduction in the total number of spontaneous contractions” value (from here on “% Red (F): percent reduction”) in assay [2] (1 mg/kg p.o.) is recorded as -63 ± 13%; in assay [2] (3 mg/kg p.o.) it was -82 ± 5%.

As to `Cc1cc(Cl)cc(Cl)c1CNc1c(N[C@H](C)C(C)(C)C)c(=O)c1=O` [Example 4, (R)-3-(2,4-dichloro-6-methyl-benzylamino)-4-(1,2,2-trimethyl-propylamino)-cyclobut-3-ene-1,2-dione], in assay [1] (setting [3]), the IC50 is 9800 ± 5100 nM.

For the compound `CCC(=O)N(c1c(NCc2c(C)cc(Cl)cc2Cl)c(=O)c1=O)C(C)(C)C` [Example 19, N-(tert-butyl)-N-[2-(2,4-Dichloro-6-methyl-benzylamino)-3,4-dioxo-cylobut-1-enyl]-propionamide], the activity at 30 µM in assay [1] (setting [4]) turned out to be 92.5 ± 44.2%.

With `CCC(C)(C)Nc1c(NCc2ccc(Cl)cc2Cl)c(=O)c1=O` [Example 6, 3-(2,4-Dichlorobenzylamino)-4-(1,1-dimethylpropylamino)-cyclobut-3-ene-1,2-dione], the IC50 in assay [1] (setting [3]) stood at 110 ± 2 nM; in assay [1] (Rattus norvegicus, prior lot of this compound, mp. 195-196° C., n = 4, read-out: IC50, prior lot), 210 ± 40 nM. Further, the “% Red (F): percent reduction” value in assay [2] (1 mg/kg p.o., prior lot, mp. 195-196° C.) is -40 ± 13%; in assay [2] (3 mg/kg p.o., prior lot, mp. 195-196° C.), -58 ± 9%; in assay [2] (10 mg/kg p.o., prior lot, mp. 195-196° C.), -68 ± 10%.

Turning to `Cc1cc(Cl)cc(Cl)c1CNc1c(NC(C)(C)C)c(=O)c1=O` [Example 12, 3-tert-butylamino-4-(2,4-dichloro-6-methyl-benzylamino)-cyclobut-3-ene-1,2-dione], in assay [1] (setting [3]), the IC50 is 220 ± 80 nM. In addition, the “% Red (F): percent reduction” value in assay [2] (3 mg/kg p.o.) is on record as -53 ± 18%.

Consider `CCCC(=O)N(Cc1c(C)cc(Cl)cc1Cl)c1c(NC(C)(C)CC)c(=O)c1=O` [Example 17, N-(2,4-Dichloro-6-methyl-benzyl)-N-[2-(1,1-dimethyl-2proplylamino)-3,4-dioxo-cyclobut-1-envl]-butyramide], for which the activity at 30 µM in assay [1] (setting [4]) is 245 ± 15%. In addition, the “% Red (F): percent reduction” value in assay [2] (10 mg/kg p.o.) is listed as -87 ± 2%.

Take `CCC(C)(C)Nc1c(NCc2ccc(Cl)c(Cl)c2)c(=O)c1=O` [Example 25]: in assay [1] (setting [4]), the activity at 30 µM amounted to 57.9 ± 4.2%. For the same compound, the IC50 in assay [1] (setting [3]) is 8900 ± 4000 nM.

`CC(C)(CO)Nc1c(NCc2ccc(Cl)cc2Cl)c(=O)c1=O` [Example 22, 3-(2,4-Dichlorobenzylamino)-4-(2-hvdroxy-1,1-dimethylethylamino)-cyclobut-3-ene-1,2-dione]: the IC50 in assay [1] (setting [3]) is 24000 ± 9300 nM.

Turning to `Cc1cc(Cl)cc(Cl)c1CNc1c(NCC(F)(F)C(F)(F)F)c(=O)c1=O` [Example 16], in assay [1] (setting [3]), the IC50 turned out to be 9350 ± 460 nM. For the same compound, the inhibition at 30 µM in assay [1] (isolated rat bladder strips) is 36 ± 3.2%.

As to `CC(Nc1c(NCc2ccc(Cl)cc2Cl)c(=O)c1=O)C(C)(C)C` (stereo not drawn) [Example 2, 3-(2,4-Dichlorobenzylamino)-4-(1,2,2-trimethylproylamino)-cyclobut-3-ene-1,2-dione], in assay [1] (setting [3]), the IC50 came out at 2000 ± 1000 nM.

In the case of `Cc1cc(Cl)cc(Cl)c1CNc1c(NC(C)C(C)(C)F)c(=O)c1=O` (stereo not drawn) [Example 20, 3-(2,4-dichloro-6-methyl-benzylamino)-4-(1,2-dimethyl-2-fluoro-propylamino)-cyclobut-3-ene-1,2-dione], the IC50 in assay [1] (setting [3]) worked out at 2530 ± 190 nM.

Regarding `CCCC(=O)N(Cc1ccc(Cl)cc1Cl)c1c(NC(C)(C)CC)c(=O)c1=O` [Example 8, N-(2,4-dichloro-benzyl)-N-[2-(1,1-dimethyl-propylamino)-3,4-dioxo-cyclobut-1-enyl]-butyramide], the activity at 30 µM in assay [1] (setting [4]) came to 82.8 ± 26%. For the same compound, the inhibition at 30 µM in assay [1] (isolated rat bladder strips) turned out to be 10.2%.

Consider `CC(C)(C)Nc1c(NCc2ccc(Cl)cc2Cl)c(=O)c1=O` [Example 11, 3-(t-Butylamino)-4-(2,4-dichlorobenzylamino) cyclobut-3-ene-1,2-dione], for which, in assay [1] (setting [3]), the IC50 came out at 1300 ± 600 nM.

As for `CCC(C)(C)Nc1c(N(Cc2c(C)cc(Cl)cc2Cl)C(=O)OC(C)(C)C)c(=O)c1=O` [Example 26, (2,4-Dichloro-6-methyl-benzyl)-[2-(1,1-dimethyl-propylamino)-3,4-dioxo-cyelobut-1-enyl]-carbamic acid tert-butyl ester], in assay [1] (setting [3]), the IC50 came to 4500 ± 4200 nM.
